Data reported in patent USRE46558E1, “Compositions and methods to treat diseases characterized by cellular proliferation and angiogenesis” (Paloma Pharmaceuticals, Inc., priority 2005, dated 2017).
Where two headings read alike, the source gives them in different places.

Columns and labels:
[1] = system: HUVEC quiescent; assay: Non-proliferating (quiescent) HUVEC assay; assay type: cell-based; design: dose or concentration left out as unconfirmed; settings: Homo sapiens, 48 h, read-out: HUVECq % inhibition
Description: (§1) Anti-tumor (anti-proliferative for cancer cells), anti-angiogenic activity (anti-proliferative for endothelial cells) measured in vitro as inhibition of proliferation binding to estrogen receptor alpha and beta HUVEC Proliferation. Inhibition of the proliferation of human umbilical vein endothelial cells, HUVECs, is shown as one measure of anti-angiogenic activity. HUVECS and the required media complements were purchased from Cascade Biologics (Portland, Oreg.) and the growth and maintenance of the cultures was as described by the manufacturer. The proliferation assay was carried out by seeding the HUVECs in 96-well plates at a density of 1,000 cells/well in complete medium. Following a 24 h plating period, the cells were starved for 24 h in 0.5% serum before being treated with SG (“Signal Gene” now “Palomid”) angiogenic inhibitors in the presence of 10 ng/ml b-FGF or dosing ranging presence of either b-FGF or VEGF in complete medium. After 48 h, cell number was determined using a calorimetric method as described by the supplier (Promega Corp., Madison, Wis.). The results were expressed as the percentage of the maximal b-FGF or VEGF response in the absence of angiogenic inhibitors. Non-proliferating endothelial cells were assayed by growing HUVECs to quiescence in 96-well plates and treating with angiogenic inhibitors for 48 h. Initially, 5,000 cells/well were seeded and confluence was achieved the next day. The plates were incubated another 24 h to ensure growth arrest before treatment with angiogenic inhibitors. Cell number was determined as outlined above.

[2] = system: colon carcinoma cell line, HCT-116; assay: Cancer cell line proliferation, colon; assay type: cell-based; design: dose or concentration left out as unconfirmed; settings: Homo sapiens
Description: (§2) Cancer Cell Lines. Measurement of the inhibition of tumor cell growth is one measure of anti-cancer activity. Two human cancer cell lines were used to assess the effects of SG angiogenic inhibitors on the proliferation of these cells. The cell lines were MCF-7 breast cancer cells and the colon carcinoma cell line, HCT-116. All cell lines were obtained from Americans Type Tissue Culture (Manassas, Va.) and maintained in their respective media as described by the supplier. The proliferation studies were carried out essentially as described for the proliferating endothelial cells.

[3] = system: MCF-7 breast cancer cells; assay: Cancer cell line proliferation, breast; assay type: cell-based; design: dose or concentration left out as unconfirmed; settings: Homo sapiens, MCF7
Description: as §2

[4] = system: human umbilical vein endothelial cells, HUVECs (proliferating); assay: HUVEC proliferation assay (proliferating, b-FGF or VEGF stimulated); assay type: cell-based; design: inhibition: dose or concentration left out as unconfirmed; settings: for inhibition: Homo sapiens, proliferating HUVEC, 48 h, read-out: HUVECp % inhibition
Description: as §1

[5] = molecular target: T1, human estrogen receptor beta (Homo sapiens, UniProt Q92731); assay: ER binding assay, [3H]estradiol competition, ERb; settings: 0.5 nM [3H]estradiol, 4° C. overnight; na = no activity
T1 construct: made in house; host or cells: rabbit reticulocyte lysate, coupled in vitro transcription-translation (Promega TNT kit)
T1 sequence (Q92731 whole entry): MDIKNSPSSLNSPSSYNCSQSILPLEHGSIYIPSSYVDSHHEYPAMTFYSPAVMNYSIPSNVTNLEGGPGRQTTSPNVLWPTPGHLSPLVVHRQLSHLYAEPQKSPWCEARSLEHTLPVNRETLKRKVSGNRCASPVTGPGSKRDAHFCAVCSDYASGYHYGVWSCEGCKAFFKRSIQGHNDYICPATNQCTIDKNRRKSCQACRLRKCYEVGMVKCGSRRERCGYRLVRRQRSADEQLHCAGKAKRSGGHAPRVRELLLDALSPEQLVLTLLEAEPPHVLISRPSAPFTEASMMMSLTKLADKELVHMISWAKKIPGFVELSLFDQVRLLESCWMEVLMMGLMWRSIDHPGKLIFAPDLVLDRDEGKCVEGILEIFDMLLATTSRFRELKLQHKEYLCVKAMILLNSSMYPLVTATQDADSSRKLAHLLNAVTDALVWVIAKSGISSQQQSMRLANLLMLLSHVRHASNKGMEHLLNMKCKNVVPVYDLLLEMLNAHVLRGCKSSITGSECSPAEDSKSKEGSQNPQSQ
Description: ER Binding Assay. Derivatives which bind and transduce a signal through estrogen receptors would not be considered a positive activity as such an activity could enhance cancer growth as well as induce angiogenesis. Derivatives which either have little or no binding to estrogen receptors (“ER”) would be one desired activity. […] Human cDNAs encoding ERa and ERb were used as templates to express receptor proteins in vitro. The proteins were produced with rabbit reticulocyte lysates as supplied by Promega (TNT kit) that couples transcription and translation in a single reaction. The amount of template used in each reaction was determined empirically and expression was monitored in parallel reactions where [35S]methionine was incorporated into the receptor followed by gel electrophoresis and exposure to film. Binding reactions were carried out in […] final volumes in TEG buffer (10 mM tris, pH 7.5, 1.5 mM EDTA, 10% glycerol). […] The reactions were incubated at 4° C. overnight and bound E2 was quantified by adding […] dextran-coated charcoal. […] The maximum binding was determined by competing bound E2 with only the ethanol vehicle. […] Values for percent inhibition were calculated based on the maximal E2 binding. The data were plotted and Ki values calculated using the Prism Software. […]

[6] = % of maximal b-FGF or VEGF response

Row | Compound | inhibition [1] [%] | inhibition [2] [%] | inhibition [3] [%] | inhibition [4, 6] [%] | inhibition of bFGF-stimulated endothelial cell proliferation ([4]; FIG. 1A, bFGF-stimulated) | inhibition of VEGF-stimulated endothelial cell proliferation ([4]; FIG. 1B, VEGF-stimulated) | inhibition [4] [%] | hERb % binding [5] [%]
1 | COc1cc2c(cc1OCc1ccccc1)oc(=O)c1cc(C(C)O)ccc12 (stereo not shown) [Palomid 393] | 21 | 26 | 11 | 71 |  |  |  | 
2 | COc1ccc(COc2cc3oc(=O)c4cc(C(C)O)ccc4c3cc2OC)cc1 (stereo not shown) [Palomid 529] | 31 | 20 | 32 | 113 | inhibition | inhibition | 65 | 
3 | COc1ccccc1COc1cc2oc(=O)c3cc(C(C)O)ccc3c2cc1OC (stereo not shown) [Palomid 545] | 22 | 21 | 17 | 100 |  |  | 32 | 
4 | COc1cc(COc2cc3oc(=O)c4cc(C(C)=O)ccc4c3cc2OC)cc(OC)c1 [Palomid 546] | 23 |  | 13 | 100 |  |  | 18 | 
5 | COc1cc(COc2cc3oc(=O)c4cc(C(C)O)ccc4c3cc2OC)cc(OC)c1 (stereo not shown) [Palomid 547] | 25 | 17 | 35 | 106 |  |  | 42 | 
6 | CCc1ccc2c(c1)c(=O)oc1cc(OCc3ccc(OC)cc3)c(OC)cc12 [Palomid 550] | 14 | < 10 | 28 | 77 |  |  |  | 
7 | CCc1ccc2c(c1)c(=O)oc1cc(OCc3ccccc3OC)c(OC)cc12 [Palomid 551] |  |  | 25 | 62 |  |  |  | 
8 | COc1cc2c(cc1OCc1ccc(C)cc1)oc(=O)c1cc(C(C)=O)ccc12 [Palomid 559] | 35 |  | 17 | 96 |  |  | 72 | 
9 | CCc1ccc2c(c1)c(=O)oc1cc(OCc3ccc(Br)cc3)c(OC)cc12 [Palomid 560] |  |  |  | 53 |  |  |  | 
10 | COc1cc2c(cc1OCCc1ccccc1)oc(=O)c1cc(C(C)=O)ccc12 [Palomid 568] | 14 |  | < 10 | 78 |  |  |  | 37
11 | CCc1ccc2c(c1)c(=O)oc1cc(OCc3ccc(C(=O)OC)cc3)c(OC)cc12 [Palomid 573] | < 10 | < 10 |  | 145 |  |  |  | 
12 | CCc1ccc2c(c1)c(=O)oc1cc(OCc3ccc(C(=O)c4ccccc4)cc3)c(OC)cc12 [Palomid 574] | 29 | 24 |  | 74 |  |  | 13 | 
13 | COc1cc2c(cc1OCc1ccc(C)cc1)oc(=O)c1cc(C(C)O)ccc12 (stereo not shown) [Palomid 575] | 33 | 10 | 31 | 104 |  |  | 41 | 
